Source: article PMC10066365, “Nemacol is a small molecule inhibitor of C. elegans vesicular acetylcholine transporter with anthelmintic potential” (Nature Communications, 2023)
Several values for one entry are separate records, joined by “and”; a condition that tells them apart may be missing. Equal entries are not always repeated. Where two headings read alike, the source gives them in different places.

What was measured:
Pristionchus pacificus = Pristionchus pacificus motor disruption dose-response on solid media, 1 h; settings: for mean % any phene (coiled, jerky-Unc or paralyzed): Pristionchus pacificus young adults, mean of three biological replicates; for EC50: Pristionchus pacificus, 1 h, read-out: P. pacificus motor disruption EC50
[1] = test system: Dirofilaria immitis L3/L4; assay: Dirofilaria immitis L3/L4 motility assay (DiroImager, 72 h); settings: Dirofilaria immitis L4
[2] = test system: Dirofilaria immitis microfilariae; assay: Dirofilaria immitis microfilariae immobility assay (DiroImager, 72 h); settings: for % effect (motility), DIROIM MF: Dirofilaria immitis microfilariae; for EC50: Dirofilaria immitis, 72 h, read-out: Dirofilaria immitis filariae EC50
How it was run: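 About 250 freshly purified microfilariae of the Missouri isolate per well in supplemented RPMI 1640, exposed to compound for 72 h. Motility scored by automated whole-plate optical imaging; medium with 1% DMSO as negative control.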

C. elegans = assay: Suppression of trichlorfon (AChE inhibitor) paralysis, double dose-response, scored after 80 min; type: in vivo, Caenorhabditis elegans; settings: wild-type, bio rep 1-3
[3] = test system: C. elegans unc-17 mutants; settings: 60 min, average of 3 biological repeats
Protocol: Significance was calculated using Fisher’s method (one-sided comparisons; see 'Methods'). […] Worms were incubated on the plates for 60 min.
Locomotor phenotype analyses were done in 24-well plates with 1 mL of MYOB substrate (27.5 g Trizma HCl, 12 g Trizma Base, 230 g bacto tryptone, 10 g NaCl, 0.4 g cholesterol (95%)) seeded with 25 µL of OP50 Escherichia coli on each well. Each compound was added to the MYOB substrate before pouring to achieve the desired final concentrations of 30 µM or 60 µM after diffusion through the media. Synchronized young adult worms are transferred into each well using a platinum wire pick. A Leica MZ75 stereomicroscope was used to visualize the movement of worms on the solid substrate. The specific dominant locomotor phenotype (i.e. ‘Punc’, ‘paralyzed’, ‘coiler’ or ‘wild-type locomotion’) was scored after the touch on the head with a platinum wire over a ~3–5 s of observation. […] Coiled animals were not scored as paralyzed despite sometimes not responding to light touch.

[4] = conc 3.75, observed at one hour
[5] = unc-17 (e245), 15 µM, adult worms
[6] = unc-17 (e245), 30 µM, adult worms
[7] = unc-17 (e245), 60 µM, adult worms
[8] = unc-17 (e245), 120 µM, adult worms
[9] = unc-17 (e245), 240 µM, adult worms

O=[N+]([O-])c1ccc(N2CCN(CC3CC4C=CC3C4)CC2)cc1 (stereo not drawn) [Nemacol-3]
mean % any phene (coiled, jerky-Unc or paralyzed) (Pristionchus pacificus; [4]): 0%
mean % any phene (coiled, jerky-Unc or paralyzed) (Pristionchus pacificus; conc 15, observed at one hour): 16.6667%
mean % any phene (coiled, jerky-Unc or paralyzed) (Pristionchus pacificus; conc 60, observed at one hour): 95%
EC50 (Pristionchus pacificus): 24.5 ± 2.2 µM
% effect (motility), DIROIM L4 ([1]; 2 µM): 0%
% effect (motility), DIROIM L4 ([1]; 10 µM): 75%
% effect (motility), DIROIM L4 ([1]; 50 µM): 100%
% effect (motility), DIROIM MF ([2]; 0.08 µM): 0%
% effect (motility), DIROIM MF ([2]; 0.4 µM): 0%
% effect (motility), DIROIM MF ([2]; 2 µM): 0%
% effect (motility), DIROIM MF ([2]; 10 µM): 80%
% effect (motility), DIROIM MF ([2]; 50 µM): 100%
EC50 [2]: 9.1 µM

O=[N+]([O-])c1ccc(N2CCN(CC3CC=CCC3)CC2)cc1 (stereo not drawn) [Nemacol-4]
mean % any phene (coiled, jerky-Unc or paralyzed) (Pristionchus pacificus; [4]): 0%
mean % any phene (coiled, jerky-Unc or paralyzed) (Pristionchus pacificus; conc 15, observed at one hour): 15.8333%
mean % any phene (coiled, jerky-Unc or paralyzed) (Pristionchus pacificus; conc 60, observed at one hour): 100%
EC50 (Pristionchus pacificus): 19.2 µM
% effect (motility), DIROIM L4 ([1]; 2 µM): 5%
% effect (motility), DIROIM L4 ([1]; 10 µM): 100%
% effect (motility), DIROIM L4 ([1]; 50 µM): 100%
% effect (motility), DIROIM MF ([2]; 0.08 µM): 0%
% effect (motility), DIROIM MF ([2]; 0.4 µM): 0%
% effect (motility), DIROIM MF ([2]; 2 µM): 0%
% effect (motility), DIROIM MF ([2]; 10 µM): 100%
% effect (motility), DIROIM MF ([2]; 50 µM): 100%
EC50 [2]: 5.2 µM

O[C@@H]1CCCC[C@H]1N1CCC(c2ccccc2)CC1 (racemic) [vesamicol, reference compound]
mean % any phene (coiled, jerky-Unc or paralyzed) (Pristionchus pacificus; [4]): 0%
mean % any phene (coiled, jerky-Unc or paralyzed) (Pristionchus pacificus; conc 15, observed at one hour): 0.8333%
mean % any phene (coiled, jerky-Unc or paralyzed) (Pristionchus pacificus; conc 60, observed at one hour): 9.167%
EC50 (Pristionchus pacificus): > 60 µM
% para (percentage of animals able to adopt a clear sinusoidal wave pattern upon touch on the nose) (C. elegans; vesamicol 31.75 uM + trichlorfon 0 uM): 96.4286% and 100%
% para (percentage of animals able to adopt a clear sinusoidal wave pattern upon touch on the nose) (C. elegans; vesamicol 31.75 uM + trichlorfon 25 uM): 92.8571% and 96.4286% and 100%
% para (percentage of animals able to adopt a clear sinusoidal wave pattern upon touch on the nose) (C. elegans; vesamicol 31.75 uM + trichlorfon 50 uM): 82.1429% and 71.4286% and 96.4286%
% para (percentage of animals able to adopt a clear sinusoidal wave pattern upon touch on the nose) (C. elegans; vesamicol 31.75 uM + trichlorfon 100 uM): 64.2857% and 53.5714% and 42.8571%
% para (percentage of animals able to adopt a clear sinusoidal wave pattern upon touch on the nose) (C. elegans; vesamicol 31.75 uM + trichlorfon 400 uM): 0%
% para (percentage of animals able to adopt a clear sinusoidal wave pattern upon touch on the nose) (C. elegans; vesamicol 31.75 uM + trichlorfon 800 uM): 0%
% para (percentage of animals able to adopt a clear sinusoidal wave pattern upon touch on the nose) (C. elegans; vesamicol 62.5 uM + trichlorfon 0 uM): 100%
% para (percentage of animals able to adopt a clear sinusoidal wave pattern upon touch on the nose) (C. elegans; vesamicol 62.5 uM + trichlorfon 25 uM): 92.8571% and 100%
% para (percentage of animals able to adopt a clear sinusoidal wave pattern upon touch on the nose) (C. elegans; vesamicol 62.5 uM + trichlorfon 50 uM): 89.2857% and 85.7143% and 96.4286%
% para (percentage of animals able to adopt a clear sinusoidal wave pattern upon touch on the nose) (C. elegans; vesamicol 62.5 uM + trichlorfon 100 uM): 67.8571% and 64.2857% and 53.5714%
% para (percentage of animals able to adopt a clear sinusoidal wave pattern upon touch on the nose) (C. elegans; vesamicol 62.5 uM + trichlorfon 400 uM): 0% and 3.571%
% para (percentage of animals able to adopt a clear sinusoidal wave pattern upon touch on the nose) (C. elegans; vesamicol 62.5 uM + trichlorfon 800 uM): 0%
% para (percentage of animals able to adopt a clear sinusoidal wave pattern upon touch on the nose) (C. elegans; vesamicol 125 uM + trichlorfon 0 uM): 100%
% para (percentage of animals able to adopt a clear sinusoidal wave pattern upon touch on the nose) (C. elegans; vesamicol 125 uM + trichlorfon 25 uM): 96.4286% and 100%
% para (percentage of animals able to adopt a clear sinusoidal wave pattern upon touch on the nose) (C. elegans; vesamicol 125 uM + trichlorfon 50 uM): 96.4286% and 78.5714% and 92.8571%
% para (percentage of animals able to adopt a clear sinusoidal wave pattern upon touch on the nose) (C. elegans; vesamicol 125 uM + trichlorfon 100 uM): 85.7143% and 67.8571% and 60.7143%
% para (percentage of animals able to adopt a clear sinusoidal wave pattern upon touch on the nose) (C. elegans; vesamicol 125 uM + trichlorfon 800 uM): 0%
% para (percentage of animals able to adopt a clear sinusoidal wave pattern upon touch on the nose) (C. elegans; vesamicol 250 uM + trichlorfon 0 uM): 96.4286% and 100%
% para (percentage of animals able to adopt a clear sinusoidal wave pattern upon touch on the nose) (C. elegans; vesamicol 250 uM + trichlorfon 25 uM): 100% and 96.4286%
% para (percentage of animals able to adopt a clear sinusoidal wave pattern upon touch on the nose) (C. elegans; vesamicol 250 uM + trichlorfon 50 uM): 96.4286% and 89.2857% and 100%
% para (percentage of animals able to adopt a clear sinusoidal wave pattern upon touch on the nose) (C. elegans; vesamicol 250 uM + trichlorfon 100 uM): 75% and 78.5714%
% para (percentage of animals able to adopt a clear sinusoidal wave pattern upon touch on the nose) (C. elegans; vesamicol 250 uM + trichlorfon 800 uM): 0%
% para (percentage of animals able to adopt a clear sinusoidal wave pattern upon touch on the nose) (C. elegans; vesamicol 500 uM + trichlorfon 0 uM): 100%
% para (percentage of animals able to adopt a clear sinusoidal wave pattern upon touch on the nose) (C. elegans; vesamicol 500 uM + trichlorfon 25 uM): 100% and 92.8571% and 96.4286%
% para (percentage of animals able to adopt a clear sinusoidal wave pattern upon touch on the nose) (C. elegans; vesamicol 500 uM + trichlorfon 50 uM): 89.2857% and 96.4286% and 78.5714%
% para (percentage of animals able to adopt a clear sinusoidal wave pattern upon touch on the nose) (C. elegans; vesamicol 500 uM + trichlorfon 100 uM): 82.1429% and 85.7143%
% para (percentage of animals able to adopt a clear sinusoidal wave pattern upon touch on the nose) (C. elegans; vesamicol 500 uM + trichlorfon 200 uM): 42.8571% and 50% and 71.4286%
% para (percentage of animals able to adopt a clear sinusoidal wave pattern upon touch on the nose) (C. elegans; vesamicol 500 uM + trichlorfon 800 uM): 0%
Fraction Coiled [3, 5]: 0.65
Fraction Jerky-Unc [3, 5]: 0.35
Fraction No Phenotype [3, 5]: 0.00
Fraction Parayzed [3, 5]: 0.00
Fraction Coiled [3, 6]: 0.74
Fraction Jerky-Unc [3, 6]: 0.24
Fraction No Phenotype [3, 6]: 0.00
Fraction Parayzed [3, 6]: 0.0185
Fraction Coiled [3, 7]: 0.70
Fraction Jerky-Unc [3, 7]: 0.24
Fraction No Phenotype [3, 7]: 0.00
Fraction Parayzed [3, 7]: 0.0556
Fraction Coiled [3, 8]: 0.74
Fraction Jerky-Unc [3, 8]: 0.14
Fraction No Phenotype [3, 8]: 0.00
Fraction Parayzed [3, 8]: 0.12
Fraction Coiled [3, 9]: 0.72
Fraction Jerky-Unc [3, 9]: 0.15
Fraction No Phenotype [3, 9]: 0.00
Fraction Parayzed [3, 9]: 0.13
Fraction Coiled ([3]; unc-17 (md414), 15 µM): 0.00
Fraction Jerky-Unc ([3]; unc-17 (md414), 15 µM): 0.037
Fraction No Phenotype ([3]; unc-17 (md414), 15 µM): 0.96
Fraction Parayzed ([3]; unc-17 (md414), 15 µM): 0.00
Fraction Coiled ([3]; unc-17 (md414), 30 µM): 0.00
Fraction Jerky-Unc ([3]; unc-17 (md414), 30 µM): 0.0741
Fraction No Phenotype ([3]; unc-17 (md414), 30 µM): 0.93
Fraction Parayzed ([3]; unc-17 (md414), 30 µM): 0.00
Fraction Coiled ([3]; unc-17 (md414), 60 µM): 0.00
Fraction Jerky-Unc ([3]; unc-17 (md414), 60 µM): 0.24
Fraction No Phenotype ([3]; unc-17 (md414), 60 µM): 0.76
Fraction Parayzed ([3]; unc-17 (md414), 60 µM): 0.00
Fraction Coiled ([3]; unc-17 (md414), 120 µM): 0.00
Fraction Jerky-Unc ([3]; unc-17 (md414), 120 µM): 0.43
Fraction No Phenotype ([3]; unc-17 (md414), 120 µM): 0.57
Fraction Parayzed ([3]; unc-17 (md414), 120 µM): 0.00
Fraction Coiled ([3]; unc-17 (md414), 240 µM): 0.037
Fraction Jerky-Unc ([3]; unc-17 (md414), 240 µM): 0.61
Fraction No Phenotype ([3]; unc-17 (md414), 240 µM): 0.35
Fraction Parayzed ([3]; unc-17 (md414), 240 µM): 0.00

CCC1CCC(N2CCN(c3ccc([N+](=O)[O-])cc3)CC2)CC1 (stereo not drawn) [Nemacol-2]
mean % any phene (coiled, jerky-Unc or paralyzed) (Pristionchus pacificus; [4]): 4.167%
mean % any phene (coiled, jerky-Unc or paralyzed) (Pristionchus pacificus; conc 15, observed at one hour): 89.1667%
mean % any phene (coiled, jerky-Unc or paralyzed) (Pristionchus pacificus; conc 60, observed at one hour): 100%
EC50 (Pristionchus pacificus): 8.6 ± 1.3 µM
